Test results reported in US9670261B2 (Sanofi, priority 2012, dated 2017).
Values after ≈ are worked out from the molar mass of the structure shown. *1 amine or outer side, *2 acyl side, *3 side chain or, on linkers, in order; H or OH if unused. Where a SMILES comes first, the peptide text is derived from it. Side-chain parts run from the residue outwards. [ ]: non-standard residue; d: D form. The star is where a group is joined. γGlu = O=C(O)[C@H](CCC(=O)[*:2])N[*:1]; Stearoyl = CCCCCCCCCCCCCCCCCC(=O)*; Palmitoyl = CCCCCCCCCCCCCCCC(=O)*; Aib = CC(C)(N)C(=O)O

Tests used:
[1] = target: T1, human GLP-1 receptor (Homo sapiens, UniProt P43220); assay: cAMP response (HTRF) of HEK-293 cells stably expressing human GLP-1 receptor; type: cell-based; settings: Table 7; cAMP formation; read-out: EC50 hGLP-1 R
T1 construct: expressed in transfected cells
Description: cAMP content of cells was determined using a kit from Cisbio Corp. (cat. no. 62AM4PEC) based on HTRF (Homogenous Time Resolved Fluorescence). For preparation, cells were split into T175 culture flasks and grown overnight to near confluency in medium (DMEM/10% FBS). Medium was then removed and cells washed with PBS lacking calcium and magnesium, followed by proteinase treatment with accutase (Sigma-Aldrich cat. no. A6964). Detached cells were washed and resuspended in assay buffer (1×HBSS; 20 mM HEPES, 0.1% BSA, 2 mM IBMX) and cellular density determined. They were then diluted to 400000 cells/ml and 25 μl-aliquots dispensed into the wells of 96-well plates. For measurement, 25 μl of test compound in assay buffer was added to the wells, followed by incubation for 30 minutes at room temperature.

[2] = Pharmacokinetic testing in mice, s.c.; settings: mouse, plasma, sc, 1 mg/kg
Description: Mice were dosed 1 mg/kg subcutaneously (s.c.). The mice were sacrified and blood samples were collected after 0.25, 0.5, 1, 2, 4, 8, 16 and 24 hours post application. Plasma samples were analyzed after protein precipitation via liquid chromatography mass spectrometry (LC/MS). PK parameters and half-life were calculated using WinonLin Version 5.2.1 (non-compartment model).

[3] = Solubility testing in buffer (HPLC-UV); settings: buffer
[4] = Chemical stability in solution, 7 days at 25° C. (% remaining peptide); settings: % remaining peptide after 7 days at 25° C.
Description: After that time course, the sample was centrifuged for 20 min at 4000 rpm and the supernatant was analysed with HPLC-UV. For determination of the amount of the remaining peptide, the peak areas of the target compound at t0 and t7 were compared, resulting in “% remaining peptide”, following the equation % remaining peptide=[(peak area peptide t7)×100]/peak area peptide t0.
The chemical stability is expressed as “% remaining peptide”.

[5] = system: female leptin-receptor deficient diabetic db/db mice; assay: Blood glucose and HbA1c in leptin-receptor deficient diabetic db/db mice (method 3); type: in vivo; settings: single 100 μg/kg s.c., fed db/db mice
Excerpt: Female BKS.Cg-m+/+Leprdb/J (db/db) and BKS.Cg-m+/+Leprdb/+(lean control) mice were obtained from Charles River Laboratories, Germany, at an age of 9-10 weeks. The animals were housed in groups in a specific pathogen-free barrier facility on a 12-h light/dark cycle with free access to water and rodent-standard chow. After 1 week of acclimatization, blood samples were drawn from the tail without anaesthesia and blood glucose (method: d-glucose hexokinase, hemolysate, AU640 Beckman Coulter) and HbA1c level (method: hemolysate, Cobas6000 c501, Roche Diagnostics, Germany) were determined. […] The volume of administration was 5 mL/kg. The animals had access to water and chow during the experiment, food consumption was determined at all time points of blood sampling. […] Blood sampling was performed by tail incision without anaesthesia. […] At the end of the study, blood samples (tail, no anaesthesia) were analyzed for glucose and HbA1c. […] Statistical analyses were performed with Everstat 6.0 by repeated measures two-way ANOVA and Dunnett's post-hoc analyses. Differences versus vehicle-treated db/db control mice were considered statistically significant at the p<0.05 level. […] At predefined time points, more blood samples were taken to measure blood glucose and generate the blood glucose profile over 24 h. […] Blood glucose and HbA1c were determined before start of treatment and at the end of the study after 4 weeks of treatment. […] Before treatment started, no significant differences in blood glucose levels could be detected between db/db groups, only the lean control animals had significant lower glucose levels. During the 4 weeks of treatment, glucose levels increased in the vehicle-treated db/db control group, indicating a worsening of the diabetic situation.

T1 sequence (P43220 24-463): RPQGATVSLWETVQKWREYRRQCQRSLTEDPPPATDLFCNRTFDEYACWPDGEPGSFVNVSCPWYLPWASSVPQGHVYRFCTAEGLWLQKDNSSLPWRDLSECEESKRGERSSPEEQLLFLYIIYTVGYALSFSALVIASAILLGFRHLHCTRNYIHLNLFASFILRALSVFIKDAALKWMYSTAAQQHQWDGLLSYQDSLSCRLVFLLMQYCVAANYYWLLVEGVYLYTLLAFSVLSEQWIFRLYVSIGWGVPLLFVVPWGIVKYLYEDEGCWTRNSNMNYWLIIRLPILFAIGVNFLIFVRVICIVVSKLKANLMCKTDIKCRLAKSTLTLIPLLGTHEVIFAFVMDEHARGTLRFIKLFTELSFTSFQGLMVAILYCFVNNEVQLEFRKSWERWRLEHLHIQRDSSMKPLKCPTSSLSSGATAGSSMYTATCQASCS

| Compound | EC50 [1] [pM] | Cmax [2] [ng/mL] | half-life [2] [h] | solubility at 2 h ([3]; pH 4.5) [µg/mL] | solubility at 2 h ([3]; pH 7.4) [µg/mL] | Stability (pH 4.5) [4] [%] | Stability (pH 7.4) [4] [%] | blood glucose compared to db/db control mice, 24 h profile [5] |
| --- | --- | --- | --- | --- | --- | --- | --- | --- |
| CCCCCCCCCCCCCCCC(=O)N[C@@H](CCC(=O)NCCCC[C@H](NC(=O)[C@H](CCC(N)=O)NC(=O)[C@@H](NC(=O)[C@H](CO)NC(=O)[C@H](CC(C)C)NC(=O)[C@H](CC(=O)O)NC(=O)[C@H](CO)NC(=O)[C@@H](NC(=O)[C@H](Cc1ccccc1)NC(=O)[C@@H](NC(=O)CNC(=O)[C@H](CCC(N)=O)NC(=O)C(C)(C)NC(=O)[C@@H](N)Cc1ccc(O)cc1)[C@@H](C)O)[C@@H](C)O)[C@@H](C)CC)C(=O)N[C@@H](CCC(=O)O)C(=O)N[C@@H](CCCCN)C(=O)N[C@@H](CCCNC(=N)N)C(=O)N[C@@H](C)C(=O)N[C@@H](C)C(=O)NC(C)(C)C(=O)N[C@@H](CCC(=O)O)C(=O)N[C@@H](Cc1ccccc1)C(=O)N[C@H](C(=O)N[C@@H](CCC(=O)O)C(=O)N[C@@H](Cc1c[nH]c2ccccc12)C(=O)N[C@@H](CC(C)C)C(=O)N[C@@H](CCCCN)C(=O)N[C@@H](CC(N)=O)C(=O)N[C@H](C(=O)NCC(=O)N1CCC[C@H]1C(=O)N[C@@H](CO)C(=O)N[C@@H](CO)C(=O)NCC(=O)N[C@@H](C)C(=O)N1CCC[C@H]1C(=O)N1CCC[C@H]1C(=O)N1CCC[C@H]1C(=O)N[C@@H](CO)C(N)=O)[C@@H](C)O)[C@@H](C)CC)C(=O)O [SEQ ID NO: 8, Y-Aib-Q-G-T-F-T-S-D-L-S-I-Q-K(γE-x53)-E-K-R-A-A-Aib-E-F-I-E-W-L-K-N-T-G-P-S-S-G-A-P-P-P-S-NH2] (H-Y[Aib]QGTFTSDLSIQK([γGlu-Palmitoyl])EKRAA[Aib]EFIEWLKNTGPSSGAPPPS-NH2) | 5.3 | 3740 | 3.4 | > 1000 | 972 (≈ 212 µM) | 98.0 | 98.0 |  |
| CCCCCCCCCCCCCCCC(=O)N[C@@H](CCC(=O)NCCCC[C@H](NC(=O)[C@H](CCC(N)=O)NC(=O)[C@@H](NC(=O)[C@H](CO)NC(=O)[C@H](CC(C)C)NC(=O)[C@H](CC(=O)O)NC(=O)[C@H](CO)NC(=O)[C@@H](NC(=O)[C@H](Cc1ccccc1)NC(=O)[C@@H](NC(=O)CNC(=O)[C@H](CCC(=O)O)NC(=O)C(C)(C)NC(=O)[C@@H](N)Cc1ccc(O)cc1)[C@@H](C)O)[C@@H](C)O)[C@@H](C)CC)C(=O)N[C@@H](CCC(=O)O)C(=O)N[C@@H](CO)C(=O)N[C@@H](CCCNC(=N)N)C(=O)N[C@@H](C)C(=O)N[C@@H](C)C(=O)N[C@@H](CCC(N)=O)C(=O)N[C@@H](CC(=O)O)C(=O)N[C@@H](Cc1ccccc1)C(=O)N[C@H](C(=O)N[C@@H](CCC(=O)O)C(=O)N[C@@H](Cc1c[nH]c2ccccc12)C(=O)N[C@@H](CC(C)C)C(=O)N[C@@H](CCCCN)C(=O)N[C@@H](C)C(=O)NCC(=O)NCC(=O)N1CCC[C@H]1C(=O)N[C@@H](CO)C(=O)N[C@@H](CO)C(=O)NCC(=O)N[C@@H](C)C(=O)N1CCC[C@H]1C(=O)N1CCC[C@H]1C(=O)N1CCC[C@H]1C(=O)N[C@@H](CO)C(N)=O)[C@@H](C)CC)C(=O)O [SEQ ID NO: 10, Y-Aib-E-G-T-F-T-S-D-L-S-I-Q-K(γE-x53)-ESRAAQDFIEWLKAGGPSSGAPPPS-NH2] (H-Y[Aib]EGTFTSDLSIQK([γGlu-Palmitoyl])ESRAAQDFIEWLKAGGPSSGAPPPS-NH2) |  | 5820 | 2.7 |  |  |  |  | significant decrease in blood glucose |
| CCCCCCCCCCCCCCCCCC(=O)N[C@@H](CCC(=O)NCCCC[C@H](NC(=O)[C@H](CCC(N)=O)NC(=O)[C@@H](NC(=O)[C@H](CO)NC(=O)[C@H](CC(C)C)NC(=O)[C@H](CC(=O)O)NC(=O)[C@H](CO)NC(=O)[C@@H](NC(=O)[C@H](Cc1ccccc1)NC(=O)[C@@H](NC(=O)CNC(=O)[C@H](CCC(=O)O)NC(=O)C(C)(C)NC(=O)[C@@H](N)Cc1ccc(O)cc1)[C@@H](C)O)[C@@H](C)O)[C@@H](C)CC)C(=O)N[C@@H](CCC(=O)O)C(=O)N[C@@H](CCCCN)C(=O)N[C@@H](CCCNC(=N)N)C(=O)N[C@@H](C)C(=O)N[C@@H](C)C(=O)NC(C)(C)C(=O)N[C@@H](CCC(=O)O)C(=O)N[C@@H](Cc1ccccc1)C(=O)N[C@H](C(=O)N[C@@H](CCC(=O)O)C(=O)N[C@@H](Cc1c[nH]c2ccccc12)C(=O)N[C@@H](CC(C)C)C(=O)N[C@@H](CCCCN)C(=O)N[C@@H](CC(N)=O)C(=O)N[C@H](C(=O)NCC(=O)N1CCC[C@H]1C(=O)N[C@@H](CO)C(=O)N[C@@H](CO)C(=O)NCC(=O)N[C@@H](C)C(=O)N1CCC[C@H]1C(=O)N1CCC[C@H]1C(=O)N1CCC[C@H]1C(=O)N[C@@H](CO)C(N)=O)[C@@H](C)O)[C@@H](C)CC)C(=O)O [SEQ ID NO: 15, Y-Aib-E-G-T-F-T-S-D-L-S-I-Q-K(γE-x70)-E-K-R-A-A-Aib-E-F-I-E-W-L-K-N-T-G-P-S-S-G-A-P-P-P-S-NH2] (H-Y[Aib]EGTFTSDLSIQK([γGlu-Stearoyl])EKRAA[Aib]EFIEWLKNTGPSSGAPPPS-NH2) |  | 5000 | 3.5 | 997 (≈ 216 µM) | > 1000 | 91.0 | 90.0 |  |
| CCCCCCCCCCCCCCCC(=O)N[C@@H](CCC(=O)NCCCC[C@H](NC(=O)[C@H](CCC(N)=O)NC(=O)[C@@H](NC(=O)[C@H](CO)NC(=O)[C@H](CC(C)C)NC(=O)[C@H](CC(=O)O)NC(=O)[C@H](CO)NC(=O)[C@@H](NC(=O)[C@H](Cc1ccccc1)NC(=O)[C@@H](NC(=O)CNC(=O)[C@H](CCC(=O)O)NC(=O)C(C)(C)NC(=O)[C@@H](N)Cc1ccc(O)cc1)[C@@H](C)O)[C@@H](C)O)[C@@H](C)CC)C(=O)N[C@@H](CC(=O)O)C(=O)N[C@@H](CCCCN)C(=O)N[C@@H](CCCNC(=N)N)C(=O)N[C@@H](C)C(=O)N[C@@H](C)C(=O)N[C@@H](CCC(N)=O)C(=O)N[C@@H](CC(=O)O)C(=O)N[C@@H](Cc1ccccc1)C(=O)N[C@H](C(=O)N[C@@H](CCC(=O)O)C(=O)N[C@@H](Cc1c[nH]c2ccccc12)C(=O)N[C@@H](CC(C)C)C(=O)N[C@@H](CCCCN)C(=O)N[C@@H](C)C(=O)NCC(=O)NCC(=O)N1CCC[C@H]1C(=O)N[C@@H](CO)C(=O)N[C@@H](CO)C(=O)NCC(=O)N[C@@H](C)C(=O)N1CCC[C@H]1C(=O)N1CCC[C@H]1C(=O)N1CCC[C@H]1C(=O)N[C@@H](CO)C(N)=O)[C@@H](C)CC)C(=O)O [SEQ ID NO: 31, Y-Aib-E-G-T-F-T-S-D-L-S-I-Q-K(γE-x53)-DKRAAQDFIEWLKAGGPSSGAPPPS-NH2] | 6 |  |  | > 1000 | > 1000 | 94.0 | 96.0 |  |
| CCCCCCCCCCCCCCCC(=O)N[C@@H](CCC(=O)NCCCC[C@H](NC(=O)[C@H](CCC(N)=O)NC(=O)[C@@H](NC(=O)[C@H](CO)NC(=O)[C@H](CC(C)C)NC(=O)[C@H](CC(=O)O)NC(=O)[C@H](CO)NC(=O)[C@@H](NC(=O)[C@H](Cc1ccccc1)NC(=O)[C@@H](NC(=O)CNC(=O)[C@H](CCC(=O)O)NC(=O)C(C)(C)NC(=O)[C@@H](N)Cc1ccc(O)cc1)[C@@H](C)O)[C@@H](C)O)[C@@H](C)CC)C(=O)N[C@@H](CCC(=O)O)C(=O)N[C@@H](CO)C(=O)N[C@@H](CCCNC(=N)N)C(=O)N[C@@H](C)C(=O)N[C@@H](C)C(=O)NC(C)(C)C(=O)N[C@@H](CCC(=O)O)C(=O)N[C@@H](Cc1ccccc1)C(=O)N[C@H](C(=O)N[C@@H](CCC(=O)O)C(=O)N[C@@H](Cc1c[nH]c2ccccc12)C(=O)N[C@@H](CC(C)C)C(=O)N[C@@H](CCCCN)C(=O)N[C@@H](C)C(=O)NCC(=O)NCC(=O)N1CCC[C@H]1C(=O)N[C@@H](CO)C(=O)N[C@@H](CO)C(=O)NCC(=O)N[C@@H](C)C(=O)N1CCC[C@H]1C(=O)N1CCC[C@H]1C(=O)N1CCC[C@H]1C(=O)N[C@@H](CO)C(N)=O)[C@@H](C)CC)C(=O)O [SEQ ID NO: 35, Y-Aib-E-G-T-F-T-S-D-L-S-I-Q-K(γE-x53)-E-S-R-A-A-Aib-E-F-I-E-W-L-K-A-G-G-P-S-S-G-A-P-P-P-S-NH2] (H-Y[Aib]EGTFTSDLSIQK([γGlu-Palmitoyl])ESRAA[Aib]EFIEWLKAGGPSSGAPPPS-NH2) | 6.9 |  |  | 424 (≈ 95.4 µM) | > 1000 | 100.0 | 98.0 |  |
